Laboratory results as given in PMC10641813 (Journal of Medicinal Chemistry, 2023).
Several values for one entry are separate records, joined by “and”; a condition that tells them apart may be missing. Equal entries are not always repeated.

Key:
[1] = test system: HT29, HT29/DX, MDCK and MDCK/P-gp cells; experiment: Cytotoxicity of 15 alone (WST-1 viability); details: 1–100 nM 15 alone, 72 h, four cell lines
Description: Cell lines were obtained from the American Tissue Culture Collection (ATCC), unless specified otherwise. Cells were grown in Dulbecco’s modified Eagle’s medium (D-MEM) supplemented with 10% fetal bovine serum (FBS) at 37 °C with 5% CO2. In all experiments, 300,000 cells were plated in 9 cm^2 dishes and exposed to test compound dissolved in DMSO (0.1% final concentration) at the indicated concentrations. […] Cells were kept at low passage, returning to the original frozen stocks every 3–4 months. […] Human chemosensitive HT29 colon cancer cells were purchased from ATCC (Manassas, VA). […] MDCK and MDCK/P-gp (a gift of Prof. P. Borst, NKI-AVL Institute, Amsterdam, The Netherlands) were grown in DMEM high glucose supplemented with 10% FBS, 1% penicillin, 1% v/v penicillin–streptomycin, and 1% v/v glutamine. […] Cells were seeded in 96-well plates. […] Cell viability was evaluated using the WST-1 assay (Sigma-Merck), as per the manufacturer’s instructions, using a Packard EL340 microplate reader (Bio-Tek Instruments, Winooski, VT). The absorbance units of the untreated cells were considered 100%; the absorbance units of the other experimental conditions were expressed as a percentage versus the absorbance units of the untreated cells.

SW620 cells = experiment: Inhibition of growth of SW620 cells (XTT); details: read-out: IC50 SW620; human colorectal carcinoma cells; combinations: each compound at its IC50 concentration
Description: (§7) In drug combination studies, each compound was used at the corresponding IC50 concentration.
(§8) Cells were grown in Dulbecco’s modified Eagle’s medium (D-MEM) supplemented with 10% fetal bovine serum (FBS) at 37 °C with 5% CO2. In all experiments, 300,000 cells were plated in 9 cm^2 dishes and exposed to test compound dissolved in DMSO (0.1% final concentration) at the indicated concentrations. […] Cells were kept at low passage, returning to the original frozen stocks every 3–4 months.

HT29/DX cells [2] = experiment: Intracellular accumulation of DOX in HT29/DX cells; format: cell-based, human; details: 5 μM DOX 3 h, 15 at 1, 10, 100 nM
Description: (§1) In this model, also at the highest concentration (100 nM), the compound was not able to fully restore the accumulation of the drug to the intracellular level of MDCK cells, which were devoid of P-gp.
(§2) Figure S5. Dose-dependent viability of HT29 and HT29/DX (A), MDCK and MDCK/P-gp (B) cells, incubated with increasing concentrations (0-10 µM) of 15 for 72 h, measured with a spectrophotometric assay. Data are means ± SD (n = 3). **p<0.01, ***p<0.001: versus untreated cells (“0”). […]
(§3) drug retention was measured spectrofluorimetrically. Data are means ± SD (n=3)., ***p<0.001: versus HT29 or […]

MDCK/P-gp cells [3] = experiment: Viability of MDCK/P-gp cells with DOX alone or coincubated with 15 (WST-1); format: cell-based, canine; details: 15 at 1, 10, 100 nM coincubated with 5 μM DOX, 72 h
Description: (§4) Cells were seeded in 96-well plates.

NCI/ADR-RES cells = experiment: Inhibition of growth of NCI/ADR-RES DOX-resistant cells; format: cell-based, human; details: DOX-resistant cell line derived from OVCAR-8, 96 h
Description: (§5) ; 11 and 15, NCI/ADR-RES and OVCAR-8 cells) to 4.8 (19, OVCAR-8 cells). […] . […] Cells were seeded in 96-well plates.

MDCK cells = experiment: Viability of MDCK cells with DOX alone or coincubated with 15 (WST-1); format: cell-based, canine; details: MDCK cells, 15 at 1, 10, 100 nM coincubated with 5 μM DOX, 72 h
Description: as §4

BT-549 cells = experiment: Inhibition of BT-549 TNBC cell growth (hypoxia, cell counting); details: 72 h, 1% O2
Description: (§9) Cells were grown in Dulbecco’s modified Eagle’s medium (D-MEM) supplemented with 10% fetal bovine serum (FBS) at 37 °C with 5% CO2. In all experiments, 300,000 cells were plated in 9 cm^2 dishes and exposed to test compound dissolved in DMSO (0.1% final concentration) at the indicated concentrations. […] Cells were kept at low passage, returning to the original frozen stocks every 3–4 months. Hypoxic culture conditions were realized in the presence of 1% O2 and 5% CO2. […] After 72 h of incubation at 37 °C with 1% O2 and 5% CO2, cells were trypsinized, and cell counting was performed with the MACSQuant analyzer (Miltenyi Biotec).[76]

[4] = test system: Wnt target genes Fgf20 and Sall4; experiment: Fgf20 and Sall4 mRNA levels in HCT116 cells (qPCR); format: cell-based, human
Description: Total mRNA was isolated from cells with TriReagent (#R2050–1–200 Zymo Research), and complementary DNA (cDNA) was synthesized by the Sensifast cDNA synthesis kit (#BIO-65054 Bioline). Quantitative PCR was performed with SensiFast Sybr Lo-Rox Mix (#BIO-94020 Bioline), using an Applied Biosystems ViiA 7 Real-Time PCR System instrument (doi: 10.1038/s41389-019-0175-6) and the following amplification primers: • β-actin forward: […]; • β-actin reverse: […]; • Fgf20 forward: […]; • Fgf20 reverse: […]; • Sall4 forward: […]; • Sall4 reverse: […].

OVCAR-8 cells = experiment: Inhibition of growth of OVCAR-8 cells; format: cell-based, human; details: ovarian tumor cell line 8, 96 h
Description: as §5

[5] = test system: Wnt/β-catenin signaling pathway; experiment: Wnt reporter assay (TOPFlash/FOPFlash luciferase) in HEK293T cells; details: HEK 293T cells, LiCl 50 mM
Description: HEK293T cells were seeded at 2 × 10^4 cells/cm^2 in triplicate in a 24-well plate.

[6] = test system: human primary T lymphocytes; experiment: Toxicity on human primary T lymphocytes (annexin V/propidium iodide flow cytometry); details: 30 μM, 72 h, healthy/normal T cells
Description: After 72 h, the frequency of late apoptotic cells was assayed by staining with annexin V and propidium iodide.
Potential toxicity on healthy cells was evaluated by treating human primary T lymphocytes from two healthy donors with 30 μM 15 or with a control vehicle (DMSO). Healthy donors’ peripheral blood mononuclear cells (PBMCs) were isolated by Lymphoprep (Nycomed) gradient centrifugation. T lymphocytes were negatively selected from PBMCs using magnetic Dynabeads Untouched Human T Cells Kit (Thermo Fisher Scientific) following the manufacturer’s instructions. Apoptotic cell death was evaluated using APC Annexin-V Apoptosis Detection Kit with PI (Thermo Fisher Scientific). […] Cells were then stained using annexin-V/APC and propidium iodide according to the manufacturer’s instruction. Cell populations were acquired using a FACS Canto II flow cytometer (BD Biosciences). Flow cytometric analysis was performed using Flow Jo Flow Cytometric Analysis Software.

tubulin = experiment: Tubulin assembly (polymerization) assay; format: biochemical; details: at 20 μM
Description: The reaction mixtures contained 0.8 M monosodium glutamate (pH 6.6 with HCl in a 2 M stock solution), 10 μM tubulin, 4% (v/v) DMSO, and varying concentrations of compound. […] The extent of the reaction was measured.

HCT116 cells = experiment: Inhibition of growth of HCT116 cells (MTT); details: read-out: IC50 HCT116; human colorectal carcinoma cells; combinations: each compound at its IC50 concentration
Description: as §7, §8

MCF-7 cells = experiment: Inhibition of growth of MCF-7 cells; format: cell-based, human; details: human nonmetastatic breast cancer epithelial cells
Description: as §5

HT29/DX cells [7] = experiment: Viability of HT29/DX cells with DOX alone or coincubated with 15 (WST-1); format: cell-based, human; details: 15 at 1, 10, 100 nM coincubated with 5 μM DOX, 72 h
Description: as §4

hCA IX = molecular target: T1, hCA IX (Homo sapiens, UniProt Q16790); experiment: Stopped flow CO2 hydrase assay, hCA IX; format: biochemical; details: stopped flow technique, mean from three assays
T1 construct: made in house

[8] = test system: β-catenin and MYC in HCT116 cells; experiment: β-Catenin and c-Myc levels in HCT116 cells (Western blot); format: cell-based, human; details: LiCl 50 mM, 24 h
Description: (§6) Western blot was performed as previously described.[79] […] Cell lysates were subjected to SDS-polyacrylamide gel electrophoresis and transferred to a nitrocellulose membrane. The membrane was blocked, washed, and incubated with primary antibodies at 37 °C overnight [anti-β-catenin (D10A8) XP mAb #8480 (Cell Signaling), anti-cMyc #9402S (Cell Signaling), anticleaved caspase 3 (Asp175) #9661 (Cell Signaling), and anti-PARP #9542S (Cell Signaling)]. After the membrane was washed, it was incubated with secondary antibodies at 37 °C for 30 min. The membrane was washed again with Tris-buffered saline/Tween-20, and the samples were exposed and imaged using the WesternBright ECL solution (#K-12045-D50 Advansta).

HT29 cells = experiment: Viability of HT29 cells with DOX alone or coincubated with 15 (WST-1); format: cell-based, human; details: 15 at 1, 10, 100 nM coincubated with 5 μM DOX, 72 h
Description: as §4

MDA-MB 231 cells = experiment: Inhibition of MDA-MB 231 TNBC cell growth (hypoxia, cell counting); details: 72 h, 1% O2
Description: as §9

[9] = test system: cleaved PARP and cleaved caspase-3 in HCT116 cells; experiment: Markers of apoptosis in HCT116 cells (Western blot); format: cell-based, human; details: increasing concentrations, 72 h
Text: Detection of cleaved poly(ADPribose) polymerase (PARP) by antibodies is considered a prominent marker of apoptosis. […] Overexpression of the 24 kDa N-terminal fragment inhibits DNA repair and ADPribose formation and stimulates apoptosis,[45] with consequent increase of PARP full-length/cleaved ratio and a darker cleaved band. During apoptosis, caspase-3 is a major cause of proteolysis. Detection of cleaved caspase-3 is also a reliable marker of apoptosis since it allows the quantification of cells that are dying or have died by apoptosis.[46]
as §6

P-gp [10] = molecular target: T2, P-gp (Homo sapiens, UniProt P08183); experiment: P-gp ATPase activity, protein immunopurified from MDCK/P-gp cells; details: for Pgp activity (rate of ATP hydrolysis) MDCK-Pgp: 3 h, single replicates of I-III exp
T2 sequence (P08183 whole entry): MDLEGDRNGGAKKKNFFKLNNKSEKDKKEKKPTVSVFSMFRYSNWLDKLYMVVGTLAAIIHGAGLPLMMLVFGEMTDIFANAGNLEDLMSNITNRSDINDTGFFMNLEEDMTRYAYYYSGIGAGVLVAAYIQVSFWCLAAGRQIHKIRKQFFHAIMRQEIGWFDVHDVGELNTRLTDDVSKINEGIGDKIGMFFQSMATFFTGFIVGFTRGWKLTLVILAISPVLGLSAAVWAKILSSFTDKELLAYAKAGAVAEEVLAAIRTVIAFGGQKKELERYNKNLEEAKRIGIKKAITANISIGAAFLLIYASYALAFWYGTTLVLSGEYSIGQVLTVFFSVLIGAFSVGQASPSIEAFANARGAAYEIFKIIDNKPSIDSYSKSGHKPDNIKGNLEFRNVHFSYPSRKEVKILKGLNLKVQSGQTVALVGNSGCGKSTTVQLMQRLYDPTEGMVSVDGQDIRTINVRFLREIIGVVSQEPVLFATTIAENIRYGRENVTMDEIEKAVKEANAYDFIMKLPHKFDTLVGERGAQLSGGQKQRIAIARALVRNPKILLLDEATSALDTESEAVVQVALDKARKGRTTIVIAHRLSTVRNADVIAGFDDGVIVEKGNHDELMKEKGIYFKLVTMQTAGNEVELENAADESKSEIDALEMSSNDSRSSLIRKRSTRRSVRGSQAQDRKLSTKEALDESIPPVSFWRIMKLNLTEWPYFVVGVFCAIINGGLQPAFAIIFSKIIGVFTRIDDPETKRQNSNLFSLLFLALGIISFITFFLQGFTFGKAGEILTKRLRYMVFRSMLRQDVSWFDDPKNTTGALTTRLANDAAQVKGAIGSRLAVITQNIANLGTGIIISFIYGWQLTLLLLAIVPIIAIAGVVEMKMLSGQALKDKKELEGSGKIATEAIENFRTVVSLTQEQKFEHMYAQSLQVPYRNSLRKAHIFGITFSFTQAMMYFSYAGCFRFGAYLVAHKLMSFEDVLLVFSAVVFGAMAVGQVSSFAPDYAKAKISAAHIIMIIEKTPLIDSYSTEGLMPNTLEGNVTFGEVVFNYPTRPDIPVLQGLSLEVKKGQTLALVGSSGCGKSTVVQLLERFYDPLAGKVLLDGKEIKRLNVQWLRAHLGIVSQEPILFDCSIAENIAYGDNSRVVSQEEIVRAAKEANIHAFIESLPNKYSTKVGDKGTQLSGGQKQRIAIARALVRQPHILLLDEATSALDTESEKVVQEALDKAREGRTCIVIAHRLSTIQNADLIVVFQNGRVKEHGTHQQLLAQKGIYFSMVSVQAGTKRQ
Description: (§10) 100 μg of each immunopurified protein was incubated for 30 min at 37 °C with 50 μL of the reaction mixture (25 mM Tris/HCl, 3 mM ATP, 50 mM KCl, 2.5 mM MgSO4, 3 mM dithiothreitol, 0.5 mM EGTA, 2 mM ouabain, 3 mM NaN3; pH 7.0). […] After 30 min incubation at room temperature, the absorbance of the phosphate hydrolyzed from ATP was measured at 620 nm, using a Packard EL340 microplate reader. The absorbance was converted into nmoles hydrolyzed phosphate (Pi)/min/mg protein, according to the titration curve previously prepared.

SW480 cells = experiment: Inhibition of growth of SW480 cells (XTT); details: read-out: IC50 SW480; human colorectal carcinoma cells; combinations: each compound at its IC50 concentration
Description: as §7, §8

P-gp [11] = molecular target: T2, P-gp; experiment: P-gp ATPase activity, protein immunopurified from HT29/DX cells; details: for Pgp activity (rate of ATP hydrolysis) HT29/DX: 3 h, single replicates of I-III exp
Description: as §10

MDCK/P-gp cells [12] = experiment: Intracellular accumulation of DOX in MDCK/P-gp cells; format: cell-based, canine; details: 5 μM DOX 3 h, 15 at 1, 10, 100 nM
Description: as §1, §2, §3

4-(3-Phenyl-4-(3,4,5-trimethoxybenzoyl)-1H-pyrrol-1-yl)benzenesulfonamide [Compound 15]
cell viability [1]: > 75% | IC50 (SW620 cells): 23800 ± 1400 nM | intracellular accumulation of DOX (HT29/DX cells [2]): strong dose-dependent increase | cell viability compared with DOX alone (MDCK/P-gp cells [3]): decreased cell viability in a dose-dependent manner | IC50 (NCI/ADR-RES cells): 1900 nM and 1900 to 2100 nM and 2100 nM | cell viability compared with DOX alone (MDCK cells): did not further reduce cell viability | Inhibition of BT-549 TNBC cell growth (BT-549 cells): significantly impaired cell growth | expression of Wnt target genes Fgf20 and Sall4 [4]: significantly reduced the expression | IC50 (OVCAR-8 cells): 1900 to 2100 nM and 1900 nM | TOP reporter activity ([5]; increasing concentrations, 24 h): significant and dose-dependent inhibition | FOP reporter activity ([5]; negative control reporter): did not significantly prevent the activity | increase in cell death compared to the control vehicle [6]: 6–8% | inhibition of tubulin assembly (tubulin): partial inhibition | IC50 (HCT116 cells): 8700 ± 1400 nM | IC50 (MCF-7 cells): 1900 to 2100 nM and 1900 nM | cell viability compared with DOX alone (HT29/DX cells [7]): decreased cell viability in a dose-dependent manner | Ki (hCA IX): 24.1 nM | β-catenin and MYC levels [8]: marked reduction | cell viability compared with DOX alone (HT29 cells): did not further reduce cell viability | Inhibition of MDA-MB 231 TNBC cell growth (MDA-MB 231 cells): potent antiproliferative effect | cleaved PARP and cleaved caspase-3 levels [9]: increments of cleaved PARP and cleaved caspase-3 | Pgp activity (rate of ATP hydrolysis) MDCK-Pgp (P-gp [10]; 15 at 1 nM): 5.2 nmol Pi × min-1 × mg protein-1 and 5.6 nmol Pi × min-1 × mg protein-1 (2×) and 5.4 nmol Pi × min-1 × mg protein-1 (2×) and 5.5 nmol Pi × min-1 × mg protein-1 and 5.9 nmol Pi × min-1 × mg protein-1 and 5.1 nmol Pi × min-1 × mg protein-1 and 5.3 nmol Pi × min-1 × mg protein-1 | Pgp activity (rate of ATP hydrolysis) MDCK-Pgp (P-gp [10]; 15 at 10 nM): 3.4 nmol Pi × min-1 × mg protein-1 (3×) and 3.2 nmol Pi × min-1 × mg protein-1 (3×) and 3.0 nmol Pi × min-1 × mg protein-1 and 3.9 nmol Pi × min-1 × mg protein-1 and 3.8 nmol Pi × min-1 × mg protein-1 | Pgp activity (rate of ATP hydrolysis) MDCK-Pgp (P-gp [10]; 15 at 100 nM): 2.1 nmol Pi × min-1 × mg protein-1 and 2.4 nmol Pi × min-1 × mg protein-1 (2×) and 2.3 nmol Pi × min-1 × mg protein-1 and 1.6 nmol Pi × min-1 × mg protein-1 and 1.8 nmol Pi × min-1 × mg protein-1 (2×) and 1.7 nmol Pi × min-1 × mg protein-1 and 1.5 nmol Pi × min-1 × mg protein-1 | effect on P-gp activity (P-gp [10]; MDCK/P-gp, starting at 10 nM): reduced P-gp activity | IC50 (SW480 cells): 17700 ± 1300 nM | Pgp activity (rate of ATP hydrolysis) HT29/DX (P-gp [11]; 15 at 1 nM): 0.7 nmol Pi × min-1 × mg protein-1 (2×) and 0.8 nmol Pi × min-1 × mg protein-1 (3×) and 0.9 nmol Pi × min-1 × mg protein-1 and 0.6 nmol Pi × min-1 × mg protein-1 (2×) and 1.0 nmol Pi × min-1 × mg protein-1 | Pgp activity (rate of ATP hydrolysis) HT29/DX (P-gp [11]; 15 at 10 nM): 0.4 nmol Pi × min-1 × mg protein-1 (3×) and 0.6 nmol Pi × min-1 × mg protein-1 (3×) and 0.5 nmol Pi × min-1 × mg protein-1 (2×) and 0.7 nmol Pi × min-1 × mg protein-1 | Pgp activity (rate of ATP hydrolysis) HT29/DX (P-gp [11]; 15 at 100 nM): 0.1 nmol Pi × min-1 × mg protein-1 and 0.2 nmol Pi × min-1 × mg protein-1 (3×) and 0.3 nmol Pi × min-1 × mg protein-1 (5×) | effect on P-gp activity (P-gp [11]; HT29/DX, starting at 10 nM): reduced P-gp activity | intracellular accumulation of DOX (MDCK/P-gp cells [12]): increasing DOX accumulation
